{
  "source": "PubChem BioAssay AID328",
  "about": "(DTP/NCI, 2004)",
  "system": "BDF1 mice, P388 leukemia ip, median survival T/C",
  "experiment": "NCI In Vivo Anticancer Drug Screen. Data for tumor model P388 Leukemia (intraperitoneal) in B6D2F1 (BDF1) mice",
  "details": "endpoint: median survival time, higher = longer survival",
  "method_in_brief": "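Antitumour effect was judged in vivo: survival in drug-treated mice, normalised to that of vehicle-dosed controls, gives the reported T/C.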",
  "key": {"[1]": {"details": "dose: 50.0 mg/kg/injection, schedule: Q01DX009 (ip), vehicle: saline with Tween-80"}, "[2]": {"details": "dose: 100.0 mg/kg/injection, schedule: Q01DX009 (ip), vehicle: saline with Tween-80"}, "[3]": {"details": "dose: 100.0 mg/kg/injection, schedule: Q04DX003 (ip), vehicle: Klucel (hydroxypropylcellulose) (HPC)"}, "[4]": {"details": "dose: 200.0 mg/kg/injection, schedule: Q01DX009 (ip), vehicle: saline with Tween-80"}, "[5]": {"details": "dose: 200.0 mg/kg/injection, schedule: Q04DX003 (ip), vehicle: Klucel (hydroxypropylcellulose) (HPC)"}, "[6]": {"details": "dose: 400.0 mg/kg/injection, schedule: Q01DX009 (ip), vehicle: saline with Tween-80"}, "[7]": {"details": "dose: 100.0 mg/kg/injection, schedule: Q04DX003 (ip), vehicle: saline with Tween-80"}, "[8]": {"details": "dose: 200.0 mg/kg/injection, schedule: Q04DX003 (ip), vehicle: saline with Tween-80"}, "[9]": {"details": "dose: 400.0 mg/kg/injection, schedule: Q04DX003 (ip), vehicle: saline with Tween-80"}, "[10]": {"details": "dose: 100.0 mg/kg/injection, schedule: Q01DX009 (ip), vehicle: Klucel (hydroxypropylcellulose) (HPC)"}, "[11]": {"details": "dose: 200.0 mg/kg/injection, schedule: Q01DX009 (ip), vehicle: Klucel (hydroxypropylcellulose) (HPC)"}, "[12]": {"details": "dose: 400.0 mg/kg/injection, schedule: Q04DX003 (ip), vehicle: Klucel (hydroxypropylcellulose) (HPC)"}},
  "note": "Where “and” joins values, the source holds several entries; their conditions need not be identical. Equal entries are not always repeated. Toxic doses and inconclusive results are not listed.",
  "data": [
    {"smiles": "CCN(CC)C(=O)c1ccc(C(Cl)(Cl)Cl)cc1", "values": [
      {"measurement": "T/C", "setting": "dose: 12.5 mg/kg/injection, schedule: Q01DX009 (ip), vehicle: saline with Tween-80", "value": "102 % of control"},
      {"measurement": "T/C", "setting": "[1]", "value": "100 % of control and 109 % of control and 120 % of control"},
      {"measurement": "T/C", "setting": "[2]", "value": "100 % of control (2×) and 104 % of control"},
      {"measurement": "T/C", "setting": "[3]", "value": "100 % of control"},
      {"measurement": "T/C", "setting": "dose: 176.0 mg/kg/injection, schedule: Q04DX003 (ip), vehicle: saline sonified", "value": "104 % of control"},
      {"measurement": "T/C", "setting": "[4]", "value": "112 % of control"},
      {"measurement": "T/C", "setting": "[5]", "value": "95 % of control"},
      {"measurement": "T/C", "setting": "dose: 264.0 mg/kg/injection, schedule: Q04DX003 (ip), vehicle: saline sonified", "value": "104 % of control"},
      {"measurement": "T/C", "setting": "[6]", "value": "109 % of control"}
    ]},
    {"smiles": "O=C1CSC(c2ccccc2)N1c1nccs1", "note": "(configuration not stated)", "values": [
      {"measurement": "T/C", "setting": "[1]", "value": "98 % of control"},
      {"measurement": "T/C", "setting": "[2]", "value": "91 % of control"},
      {"measurement": "T/C", "setting": "[4]", "value": "104 % of control"}
    ]},
    {"smiles": "COc1ccccc1C1(O)c2ccccc2Sc2cccc(OC)c21", "note": "(configuration not stated)", "values": [
      {"measurement": "T/C", "setting": "[2]", "value": "104 % of control"},
      {"measurement": "T/C", "setting": "[4]", "value": "100 % of control"},
      {"measurement": "T/C", "setting": "[6]", "value": "95 % of control"}
    ]},
    {"smiles": "S=C(N/N=C1\\CSCc2ccccc21)Nc1cc(Cl)ccc1Cl", "values": [
      {"measurement": "T/C", "setting": "[1]", "value": "90 % of control"},
      {"measurement": "T/C", "setting": "[4]", "value": "88 % of control"}
    ]},
    {"smiles": "CCOC(=O)c1cc(CC)sc1N", "values": [
      {"measurement": "T/C", "setting": "[7]", "value": "95 % of control"},
      {"measurement": "T/C", "setting": "[8]", "value": "108 % of control"},
      {"measurement": "T/C", "setting": "[9]", "value": "108 % of control"}
    ]},
    {"smiles": "CC(=O)CC(=O)Nc1ccc(Cl)cc1Cl", "values": [
      {"measurement": "T/C", "setting": "[10]", "value": "96 % of control"},
      {"measurement": "T/C", "setting": "[3]", "value": "87 % of control"},
      {"measurement": "T/C", "setting": "[11]", "value": "104 % of control"},
      {"measurement": "T/C", "setting": "[5]", "value": "87 % of control"},
      {"measurement": "T/C", "setting": "dose: 400.0 mg/kg/injection, schedule: Q01DX009 (ip), vehicle: Klucel (hydroxypropylcellulose) (HPC)", "value": "88 % of control"},
      {"measurement": "T/C", "setting": "[12]", "value": "95 % of control"}
    ]},
    {"smiles": "C=C(C)[C@@]12O[C@@]3(CCCCCCCCC)O[C@@H]1[C@@H]1[C@@H]4O[C@]4(CO)[C@@H](O)[C@]4(O)C(=O)C(C)=CC4[C@@]1(O3)[C@H](C)[C@H]2OC(=O)c1ccccc1", "note": "(some centres not stated)", "values": [
      {"measurement": "T/C", "setting": "dose: 400.0 micrograms/kg/injection, schedule: Q01DX009 (ip), vehicle: saline + alcohol", "value": "174 % of control"}
    ]},
    {"smiles": "CC1=CC(=O)C2=C(C)CCC3C(C)C(=O)OC3C12", "note": "(configuration not stated)", "values": [
      {"measurement": "T/C", "setting": "[7]", "value": "100 % of control"},
      {"measurement": "T/C", "setting": "[8]", "value": "111 % of control"},
      {"measurement": "T/C", "setting": "[9]", "value": "116 % of control"}
    ]},
    {"smiles": "Cc1nc(N(C)C)c2cnn(-c3ccccc3)c2n1", "values": [
      {"measurement": "T/C", "setting": "dose: 25.0 mg/kg/injection, schedule: Q01DX009 (ip), vehicle: Klucel (hydroxypropylcellulose) (HPC)", "value": "105 % of control"},
      {"measurement": "T/C", "setting": "dose: 50.0 mg/kg/injection, schedule: Q01DX009 (ip), vehicle: Klucel (hydroxypropylcellulose) (HPC)", "value": "105 % of control"},
      {"measurement": "T/C", "setting": "[10]", "value": "105 % of control"}
    ]},
    {"smiles": "O=c1c2ccc(Cl)cc2[nH]c2ccc(Cl)cc12", "values": [
      {"measurement": "T/C", "setting": "dose: 25.0 mg/kg/injection, schedule: Q04DX003 (ip), vehicle: saline with Tween-80", "value": "103 % of control"},
      {"measurement": "T/C", "setting": "dose: 50.0 mg/kg/injection, schedule: Q04DX003 (ip), vehicle: saline with Tween-80", "value": "100 % of control"},
      {"measurement": "T/C", "setting": "[7]", "value": "99 % of control"}
    ]},
    {"smiles": "CCOC(=O)CNC(=O)C(CSSCC(NC(=O)OCc1ccccc1)C(=O)NCC(=O)OCC)NC(=O)OCc1ccccc1", "note": "(configuration not stated)", "values": [
      {"measurement": "T/C", "setting": "[3]", "value": "118 % of control"},
      {"measurement": "T/C", "setting": "[5]", "value": "86 % of control"},
      {"measurement": "T/C", "setting": "[12]", "value": "109 % of control"}
    ]},
    {"smiles": "CCCCCCCCCCCCCCCCCC(=O)[O][Sn]([CH2]CCC)([CH2]CCC)[O]C(=O)CCCCCCCCCCCCCCCCC", "values": [
      {"measurement": "T/C", "setting": "dose: 12.5 mg/kg/injection, schedule: Q04DX003 (ip), vehicle: other", "value": "121 % of control"}
    ]},
    {"smiles": "Cc1cc[n+](C)c2ccccc12", "values": [
      {"measurement": "T/C", "setting": "dose: 9.37 mg/kg/injection, schedule: Q04DX003 (ip), vehicle: saline", "value": "100 % of control"},
      {"measurement": "T/C", "setting": "dose: 18.75 mg/kg/injection, schedule: Q04DX003 (ip), vehicle: saline", "value": "100 % of control"}
    ]},
    {"smiles": "COc1cccc2c1N=C1CCCC3CN(C(C)=O)CCC123", "note": "(configuration not stated)", "values": [
      {"measurement": "T/C", "setting": "[1]", "value": "99 % of control"},
      {"measurement": "T/C", "setting": "[2]", "value": "103 % of control"},
      {"measurement": "T/C", "setting": "[4]", "value": "99 % of control"}
    ]},
    {"smiles": "NC(=O)NC1C(c2ccccc2)=NOC1C(N)=O", "note": "(configuration not stated)", "values": [
      {"measurement": "T/C", "setting": "[10]", "value": "105 % of control"},
      {"measurement": "T/C", "setting": "[11]", "value": "100 % of control"}
    ]}
  ]
}
